Reference: patent US9062078B2, “Substituted 7-azabicyles and their use as orexin receptor modulators” (priority 2013, dated 2015)
Read-outs that look alike come from different tables or passages of the source.

Columns and labels:
[1] = molecular target: human orexin 2 receptor (Homo sapiens (Human), UniProt O43614); experiment: Human orexin 2 receptor radioligand binding (competitive, [3H]-EMPA, HEK293 cell preparations)
[2] = molecular target: human orexin 1 receptor (Homo sapiens (Human), UniProt O43613); experiment: Human orexin 1 receptor radioligand binding (competitive, [3H]-SB674042, CHO cell preparations)
Chain of human orexin 1 receptor (O43613 whole entry): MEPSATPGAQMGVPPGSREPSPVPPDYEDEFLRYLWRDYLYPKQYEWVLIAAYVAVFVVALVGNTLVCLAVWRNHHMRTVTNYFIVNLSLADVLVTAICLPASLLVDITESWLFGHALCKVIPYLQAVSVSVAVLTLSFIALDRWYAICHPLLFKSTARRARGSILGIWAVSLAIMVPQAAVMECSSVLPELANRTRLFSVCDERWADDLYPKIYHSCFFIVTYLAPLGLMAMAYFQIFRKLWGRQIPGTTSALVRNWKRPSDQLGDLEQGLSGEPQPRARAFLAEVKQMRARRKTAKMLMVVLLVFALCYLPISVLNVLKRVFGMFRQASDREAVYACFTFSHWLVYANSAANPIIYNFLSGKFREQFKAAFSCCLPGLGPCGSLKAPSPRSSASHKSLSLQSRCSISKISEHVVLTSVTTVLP

[3] = molecular target: rat orexin 1 receptor (Rattus norvegicus, UniProt P56718); experiment: Rat orexin 1 receptor radioligand binding (competitive, [3H]-SB674042, HEK293 cell preparations)
[4] = human orexin 2 receptor, [3H]-EMPA competition binding, read-out: hOX2 Ki (nm)
[5] = human orexin 1 receptor, [3H]-SB674042 competition binding, read-out: hOX1 Ki (nm)
[6] = rat orexin 1 receptor, [3H]-SB674042 competition binding, read-out: rOX1 Ki (nm)

Chain of human orexin 2 receptor (O43614 whole entry): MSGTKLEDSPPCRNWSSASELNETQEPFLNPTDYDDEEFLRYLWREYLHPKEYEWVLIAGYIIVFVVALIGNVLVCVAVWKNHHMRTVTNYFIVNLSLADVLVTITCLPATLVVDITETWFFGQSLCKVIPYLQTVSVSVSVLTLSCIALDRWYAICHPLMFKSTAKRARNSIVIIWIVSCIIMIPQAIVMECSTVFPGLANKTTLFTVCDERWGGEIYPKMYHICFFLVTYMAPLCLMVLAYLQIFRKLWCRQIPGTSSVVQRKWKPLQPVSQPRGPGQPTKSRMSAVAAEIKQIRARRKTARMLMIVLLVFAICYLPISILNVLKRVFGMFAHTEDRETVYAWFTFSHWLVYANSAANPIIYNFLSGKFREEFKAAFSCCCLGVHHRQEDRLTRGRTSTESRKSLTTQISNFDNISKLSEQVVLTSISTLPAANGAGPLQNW

`Cc1noc(-c2ccccc2C(=O)N2C3CCC2C(COc2nccc(C(F)(F)F)n2)C3)n1` (racemic) [Example 133, (±)-(2-(3-methyl-1,2,4-oxadiazol-5-yl)phenyl)(2-(((4-(trifluoromethyl)pyrimidin-2-yl)oxy)methyl)-7-azabicyclo[2.2.1]heptan-7-yl)methanone] was tested, and the Ki [1, 4] was 0.95 µM and the Ki [2, 5] was 1.4 µM.

In the case of `CCOc1ccccc1C(=O)N1C2CCC1C(COc1ccc(F)cn1)C2` (racemic) [Example 165, (±)-(2-ethoxyphenyl)(2-(((5-fluoropyridin-2-yl)oxy)methyl)-7-azabicyclo[2.2.1]heptan-7-yl)methanone], the Ki [1, 4] is reported as 0.55 µM and the Ki ([2]; hOX1 Ki (nm)) is reported as 0.409 µM.

`Cc1cccc(OCC2CC3CCC2N3C(=O)c2ccccc2-c2nc(C)no2)n1` (racemic) [Example 141, (±)-(2-(3-methyl-1,2,4-oxadiazol-5-yl)phenyl)(2-(((6-methylpyridin-2-yl)oxy)methyl)-7-azabicyclo[2.2.1]heptan-7-yl)methanone] was tested, and the Ki [1, 4] was 0.3 µM and the Ki [2, 5] was 0.28 µM.

`O=C(c1cc(F)ccc1-n1nccn1)N1C2CCC1C(CNc1nccc(C(F)(F)F)n1)C2` (racemic) [Example 171, (±)-(5-fluoro-2-(2H-1,2,3-triazol-2-yl)phenyl)(2-(((4-(trifluoromethyl)pyrimidin-2-yl)amino)methyl)-7-azabicyclo[2.2.1]heptan-7-yl)methanone] was tested, and the Ki [2, 5] was 1.93 µM.

For `O=C(c1ccccc1-n1nccn1)N1C2CCC1C(Nc1ncc(C(F)(F)F)cn1)C2` (racemic) [Example 221, (±)-(2-(2H-1,2,3-triazol-2-yl)phenyl)(2-(5-(trifluoromethyl)pyrimidin-2-yl)amino)-7-azabicyclo[2.2.1]heptan-7-yl)methanone], the Ki [2, 5] was 0.2 µM.

Molecule `Cc1cnc(C(=O)N2C3CCC2C(Nc2ccc(C(F)(F)F)cn2)C3)c(-n2nccn2)c1` (racemic) [Example 188, (±)-(5-methyl-3-(2H-1,2,3-triazol-2-yl)pyridin-2-yl)(2-(5-(trifluoromethyl)pyridin-2-yl)amino)-7-azabicyclo[2.2.1]heptan-7-yl)methanone] has a Ki ([3]; rOX1 Ki (nm)) of 0.295 µM and a Ki [1, 4] of 1.5 µM.

`CCOc1ccc(C)nc1C(=O)N1C2CCC1C(Nc1cnc3ccccc3n1)C2` (single isomer, unassigned) [Example 229, (±)-(3-ethoxy-6-methylpyridin-2-yl)(2-(quinoxalin-2-ylamino)-7-azabicyclo[2.2.1]heptan-7-yl)methanone] was tested, and the Ki [3, 6] was greater than 10 µM and the Ki [1, 4] was greater than 10 µM.

In the case of `COc1cccc(OC)c1C(=O)N1C2CCC1C(COc1ccc(F)cn1)C2` (racemic) [Example 106, (±)-(2,6-dimethoxyphenyl)(2-(((5-fluoropyridin-2-yl)oxy)methyl)-7-azabicyclo[2.2.1]heptan-7-yl)methanone], the Ki [3, 6] is reported as 0.3 µM and the Ki [1, 4] is reported as 0.154 µM.

`Cc1ccc(C(=O)N2C3CCC2C(Nc2ccc(C(F)(F)F)cn2)C3)c(-n2ccnn2)n1` (racemic) [Example 190, (±)-(6-methyl-2-(1H-1,2,3-triazol-1-yl)pyridin-3-yl)(2-(5-(trifluoromethyl)pyridin-2-yl)amino)-7-azabicyclo[2.2.1]heptan-7-yl)methanone] was tested, and the Ki ([3]; rOX1 Ki (nm)) was 0.589 µM and the Ki [1, 4] was 1.2 µM.

`Cc1ccc(-n2nccn2)c(C(=O)N2C3CCC2C(Nc2ncc(C(F)(F)F)cn2)C3)n1` (racemic) [Example 228, (±)-(6-methyl-3-(2H-1,2,3-triazol-2-yl)pyridin-2-yl)(2-((5-(trifluoromethyl)pyrimidin-2-yl)amino)-7-azabicyclo[2.2.1]heptan-7-yl)methanone] was tested, and the Ki ([3]; rOX1 Ki (nm)) was greater than 10 µM and the Ki [1, 4] was greater than 10 µM.

For `Cc1ccc(-n2cccn2)c(C(=O)N2C3CCC2C(COc2ccccn2)C3)n1` (racemic) [Example 95, (±)-(6-methyl-3-(1H-pyrazol-1-yl)pyridin-2-yl)(2-((pyridin-2-yloxy)methyl)-7-azabicyclo[2.2.1]heptan-7-yl)methanone], the Ki [3, 6] was 0.247 µM and the Ki [1, 4] was 3.7 µM.

`Cc1ccc(-c2ncccn2)c(C(=O)N2C3CCC2C(COc2ncc(F)cn2)C3)n1` (racemic) [Example 175, (±)-(2-(((5-fluoropyrimidin-2-yl)oxy)methyl)-7-azabicyclo[2.2.1]heptan-7-yl)(6-methyl-3-(pyrimidin-2-yl)pyridin-2-yl)methanone] was tested, and the Ki ([3]; rOX1 Ki (nm)) was 2.5 µM and the Ki [1, 4] was 4 µM.

In the case of `Cc1cnc(C(=O)N2C3CCC2C(COc2ccccn2)C3)c(-n2nccn2)c1` (racemic) [Example 71, (±)-(5-methyl-3-(2H-1,2,3-triazol-2-yl)pyridin-2-yl)(2-((pyridin-2-yloxy)methyl)-7-azabicyclo[2.2.1]heptan-7-yl)methanone], the Ki [3, 6] is reported as 1.2 µM and the Ki [1, 4] is reported as 3.7 µM.

With `Cc1ccc(-n2nccn2)c(C(=O)N2C3CCC2C(COc2ncccn2)C3)n1` (racemic) [Example 59, (±)-(6-methyl-3-(2H-1,2,3-triazol-2-yl)pyridin-2-yl)(2-((pyrimidin-2-yloxy)methyl)-7-azabicyclo[2.2.1]heptan-7-yl)methanone] the Ki [3, 6] was 2.6 µM and the Ki ([1]; hOX2 Ki (nm)) was 4.9 µM.

With `COc1ccc(C(=O)N2C3CCC2C(COc2ccc(F)cn2)C3)c(-n2nccn2)c1` (racemic) [Example 119, (±)-(2-(((5-fluoropyridin-2-yl)oxy)methyl)-7-azabicyclo[2.2.1]heptan-7-yl)(4-methoxy-2-(2H-1,2,3-triazol-2-yl)phenyl)methanone] the Ki [3, 6] was 0.5 µM and the Ki [1, 4] was 1.3 µM.

In the case of `Cc1ccc(-n2nccn2)c(C(=O)N2C3CCC2C(COc2ccncc2)C3)n1` (racemic) [Example 57, (±)-(6-methyl-3-(2H-1,2,3-triazol-2-yl)pyridin-2-yl)(2-((pyridin-4-yloxy)methyl)-7-azabicyclo[2.2.1]heptan-7-yl)methanone], the Ki [3, 6] is reported as 1 µM and the Ki [1, 4] is reported as 7.3 µM.

Molecule `COc1cnc(C(=O)N2C3CCC2C(COc2ccc(F)cn2)C3)c(-n2nccn2)c1` (racemic) [Example 113, (±)-(2-(((5-fluoropyridin-2-yl)oxy)methyl)-7-azabicyclo[2.2.1]heptan-7-yl)(5-methoxy-3-(2H-1,2,3-triazol-2-yl)pyridin-2-yl)methanone] has a Ki [3, 6] of 3.4 µM and a Ki [1, 4] of 4.8 µM.

For `Cn1ncc(C(=O)N2C3CCC2C(COc2ccccn2)C3)c1-c1ccccc1` (racemic) [Example 84, (±)-(1-methyl-5-phenyl-1H-pyrazol-4-yl)(−2-((pyridin-2-yloxy)methyl)-7-azabicyclo[2.2.1]heptan-7-yl)methanone], the Ki [3, 6] was 2.6 µM and the Ki [1, 4] was 9.7 µM.

With `Cc1ccc(-n2nccn2)c(C(=O)N2C3CCC2C(COc2ccncn2)C3)n1` (racemic) [Example 61, (±)-(6-methyl-3-(2H-1,2,3-triazol-2-yl)pyridin-2-yl)(2-((pyrimidin-4-yloxy)methyl)-7-azabicyclo[2.2.1]heptan-7-yl)methanone] the Ki ([3]; rOX1 Ki (nm)) was 2.8 µM and the Ki ([1]; hOX2 Ki (nm)) was greater than 10 µM.

In the case of `CCOc1nc(C)ccc1C(=O)N1C2CCC1C(COc1ccccn1)C2` (racemic) [Example 158, (±)-(2-ethoxy-6-methylpyridin-3-yl)(2-((pyridin-2-yloxy)methyl)-7-azabicyclo[2.2.1]heptan-7-yl)methanone], the Ki [3, 6] is reported as 2.93 µM and the Ki [1, 4] is reported as 1.78 µM.

Molecule `Cc1ccc(-n2nccn2)c(C(=O)N2C3CCC2C(COc2ccc(C(F)(F)F)cn2)C3)n1` (racemic) [Example 47, (±)-(6-methyl-3-(2H-1,2,3-triazol-2-yl)pyridin-2-yl)(2-(((5-(trifluoromethyl)pyridin-2-yl)oxy)methyl)-7-azabicyclo[2.2.1]heptan-7-yl)methanone] has a Ki ([3]; rOX1 Ki (nm)) of 0.46 µM and a Ki [1, 4] of 0.418 µM.

In the case of `COc1c(F)cccc1C(=O)N1C2CCC1C(Nc1cnc3ccccc3n1)C2` (single isomer, unassigned) [Example 231, (±)-(3-fluoro-2-methoxyphenyl)(2-(quinoxalin-2-ylamino)-7-azabicyclo[2.2.1]heptan-7-yl)methanone], the Ki [3, 6] is reported as greater than 10 µM and the Ki [1, 4] is reported as greater than 10 µM.

`O=C(c1cc(F)ccc1-n1nccn1)N1C2CCC1C(CNc1cccc(C(F)(F)F)n1)C2` (racemic) [Example 172, (±)-(5-fluoro-2-(2H-1,2,3-triazol-2-yl)phenyl)(2-(((6-(trifluoromethyl)pyridin-2-yl)amino)methyl)-7-azabicyclo[2.2.1]heptan-7-yl)methanone] was tested, and the Ki [2, 5] was 0.686 µM.

`Cn1ncc(-c2ccccc2)c1C(=O)N1C2CCC1C(COc1ccccn1)C2` (racemic) [Example 81, (±)-(1-methyl-4-phenyl-1H-pyrazol-5-yl)(2-((pyridin-2-yloxy)methyl)-7-azabicyclo[2.2.1]heptan-7-yl)methanone] gave a Ki [3, 6] of 0.916 µM and a Ki [1, 4] of 2.9 µM.

`O=C(c1nc2ccccc2[nH]1)N1[C@@H]2CC[C@H]1[C@H](Nc1cnc(C(F)(F)F)cn1)C2` [Example 250, (1H-benzo[d]imidazol-2-yl)((1S,2R,4R)-2-((5-(trifluoromethyl)pyrazin-2-yl)amino)-7-azabicyclo[2.2.1]heptan-7-yl)methanone] gave a Ki [3, 6] of 5.65 µM and a Ki [1, 4] greater than 10 µM.

Work on `Cc1ccc(-c2ncccc2C)c(C(=O)N2C3CCC2C(COc2ccccn2)C3)n1` (racemic) [Example 90, (±)-(3,6′-dimethyl-[2,3′-bipyridin]-2′-yl)(2-((pyridin-2-yloxy)methyl)-7-azabicyclo[2.2.1]heptan-7-yl)methanone] yielded a Ki [3, 6] of 3 µM and a Ki ([1]; hOX2 Ki (nm)) greater than 10 µM.

In the case of `COC(=O)c1cnc(N[C@@H]2C[C@H]3CC[C@@H]2N3C(=O)c2cccc(F)c2-c2ncccn2)cn1` [Example 275, methyl 5-(((1S,2R,4R)-7-(3-fluoro-2-(pyrimidin-2-yl)benzoyl)-7-azabicyclo[2.2.1]heptan-2-yl)amino)pyrazine-2-carboxylate], the Ki [3, 6] is reported as greater than 10 µM and the Ki [1, 4] is reported as greater than 10 µM.

`Cc1ccc(N2CCCC2)c(C(=O)N2C3CCC2C(COc2ncc(F)cn2)C3)n1` (racemic) [Example 101, (±)-(2-(((5-fluoropyrimidin-2-yl)oxy)methyl)-7-azabicyclo[2.2.1]heptan-7-yl)(6-methyl-3-(pyrrolidin-1-yl)pyridin-2-yl)methanone] was tested, and the Ki [3, 6] was 0.65 µM and the Ki [1, 4] was 1.2 µM.
